# Assay results taken from publication PMC5218480 (PLoS ONE, 2017).
# Tested on: MV-4-11 cells
# Assay: Gene expression microarray analysis (Affymetrix PrimeView) and GSEA
# Type: cell-based, human
# Design: RFU PODN (11730768_x_at) / Fold change /veh PODN (11730768_x_at) / RFU LINC00158 (11744669_a_at) / Fold change /veh LINC00158 (11744669_a_at) / RFU DUSP10 (11751237_a_at) / Fold change /veh DUSP10 (11751237_a_at) / RFU ID3 (11757404_x_at) / Fold change /veh ID3 (11757404_x_at) / RFU PLEKHG5 (11737974_s_at) / Fold change /veh PLEKHG5 (11737974_s_at) / RFU LRRC4B (11730491_at) / Fold change /veh LRRC4B (11730491_at) / RFU GIMAP4 (11747438_a_at) / Fold change /veh GIMAP4 (11747438_a_at) / RFU KRT8 (11758183_x_at) / Fold change /veh KRT8 (11758183_x_at) / RFU CNN1 (11734310_a_at) / Fold change /veh CNN1 (11734310_a_at) / RFU VPS37D (11726825_at) / Fold change /veh VPS37D (11726825_at) / RFU C10orf10 (11716522_x_at) / Fold change /veh C10orf10 (11716522_x_at) / RFU KIR2DL2 /// KIR2DL4 /// KIR2DL5A /// KIR2DL5B /// KIR2DS1 /// KIR2DS2 /// KIR2DS3 /// KIR2DS4 /// KIR3DL3 /// KIR3DL3 /// KIR3DS1 (11738374_at) / Fold change /veh KIR2DL2 /// KIR2DL4 /// KIR2DL5A /// KIR2DL5B /// KIR2DS1 /// KIR2DS2 /// KIR2DS3 /// KIR2DS4 /// KIR3DL3 /// KIR3DL3 /// KIR3DS1 (11738374_at) / RFU C1QL1 (11718748_at) / Fold change /veh C1QL1 (11718748_at) / RFU TMPRSS4 (11747572_a_at) / Fold change /veh TMPRSS4 (11747572_a_at) / RFU HAMP (11756126_x_at) / Fold change /veh HAMP (11756126_x_at) / RFU RNFT2 (11725882_a_at) / Fold change /veh RNFT2 (11725882_a_at) / RFU NR4A2 (11747474_a_at) / Fold change /veh NR4A2 (11747474_a_at) / RFU ABCC12 (11746883_a_at) / Fold change /veh ABCC12 (11746883_a_at) / RFU TMEM136 (11760407_x_at) / Fold change /veh TMEM136 (11760407_x_at) / RFU CLDN22 /// WWC2 (11732394_at) / Fold change /veh CLDN22 /// WWC2 (11732394_at) / RFU HLA-DPB1 (11760878_x_at) / Fold change /veh HLA-DPB1 (11760878_x_at) / RFU SPINT1 (11716480_a_at) / Fold change /veh SPINT1 (11716480_a_at) / RFU GAP43 (11754022_s_at) / Fold change /veh GAP43 (11754022_s_at) / RFU A4GNT (11735810_at) / Fold change /veh A4GNT (11735810_at) / RFU PRB3 (11715151_x_at) / Fold change /veh PRB3 (11715151_x_at) / RFU TUBB4B (11761932_at) / Fold change /veh TUBB4B (11761932_at) / RFU CAPN14 (11732068_a_at) / Fold change /veh CAPN14 (11732068_a_at) / RFU TMCC2 (11721928_a_at) / Fold change /veh TMCC2 (11721928_a_at) / RFU IRGQ (11745062_a_at) / Fold change /veh IRGQ (11745062_a_at) / RFU FAM174B (11720279_a_at) / Fold change /veh FAM174B (11720279_a_at) / RFU TMPRSS4 (11748680_a_at) / Fold change /veh TMPRSS4 (11748680_a_at) / RFU FAM212B (11763350_a_at) / Fold change /veh FAM212B (11763350_a_at) / RFU PLEKHG5 (11743358_a_at) / Fold change /veh PLEKHG5 (11743358_a_at) / RFU ZSCAN30 (11745921_a_at) / Fold change /veh ZSCAN30 (11745921_a_at) / RFU CMKLR1 (11741424_a_at) / Fold change /veh CMKLR1 (11741424_a_at) / RFU LOC101060620 /// MAPK8IP1 (11723275_at) / Fold change /veh LOC101060620 /// MAPK8IP1 (11723275_at) / RFU SPTSSB (11747773_x_at) / Fold change /veh SPTSSB (11747773_x_at) / RFU PRSS12 (11739890_at) / Fold change /veh PRSS12 (11739890_at) / RFU BIN1 (11741810_x_at) / Fold change /veh BIN1 (11741810_x_at) / RFU WNT11 (11732464_a_at) / Fold change /veh WNT11 (11732464_a_at) / RFU C10orf10 (11716521_a_at) / Fold change /veh C10orf10 (11716521_a_at) / RFU C5orf56 (11738089_at) / Fold change /veh C5orf56 (11738089_at) / RFU CYB561 (11721691_x_at) / Fold change /veh CYB561 (11721691_x_at) / RFU ANKRD19P (11752326_a_at) / Fold change /veh ANKRD19P (11752326_a_at) / RFU OR2T12 /// OR2T33 /// OR2T8 (11738714_s_at) / Fold change /veh OR2T12 /// OR2T33 /// OR2T8 (11738714_s_at) / RFU VCAN (11748164_a_at) / Fold change /veh VCAN (11748164_a_at) / RFU JSRP1 (11732532_at) / Fold change /veh JSRP1 (11732532_at) / RFU KRTAP10-11 (11738290_x_at) / Fold change /veh KRTAP10-11 (11738290_x_at) / RFU MYO3A (11730013_a_at) / Fold change /veh MYO3A (11730013_a_at) / RFU EBF3 (11725865_a_at) / Fold change /veh EBF3 (11725865_a_at) / RFU CAMK2N1 (11719241_x_at) / Fold change /veh CAMK2N1 (11719241_x_at) / RFU C5orf56 (11738088_a_at) / Fold change /veh C5orf56 (11738088_a_at) / RFU OLFML3 (11715873_a_at) / Fold change /veh OLFML3 (11715873_a_at) / RFU LOC100653217 /// NTM (11731650_a_at) / Fold change /veh LOC100653217 /// NTM (11731650_a_at) / RFU MAPK11 (11762145_a_at) / Fold change /veh MAPK11 (11762145_a_at) / RFU FIZ1 (11724087_x_at) / Fold change /veh FIZ1 (11724087_x_at) / RFU OASL (11726364_x_at) / Fold change /veh OASL (11726364_x_at) / RFU SOX15 (11748057_x_at) / Fold change /veh SOX15 (11748057_x_at) / RFU CD79A (11719716_a_at) / Fold change /veh CD79A (11719716_a_at) / RFU HIST1H1D (11736915_at) / Fold change /veh HIST1H1D (11736915_at) / RFU CASKIN2 (11723855_a_at) / Fold change /veh CASKIN2 (11723855_a_at) / RFU LOC730098 (11760151_x_at) / Fold change /veh LOC730098 (11760151_x_at) / RFU OR4N2 (11742367_at) / Fold change /veh OR4N2 (11742367_at) / RFU PRRT2 (11749266_a_at) / Fold change /veh PRRT2 (11749266_a_at) / RFU SNX32 (11753110_a_at) / Fold change /veh SNX32 (11753110_a_at) / RFU CDHR5 (11726645_a_at) / Fold change /veh CDHR5 (11726645_a_at) / RFU RCAN1 (11760418_a_at) / Fold change /veh RCAN1 (11760418_a_at) / RFU FAM167A (11723789_a_at) / Fold change /veh FAM167A (11723789_a_at) / RFU FAM26E (11764081_at) / Fold change /veh FAM26E (11764081_at) / RFU ISYNA1 (11749810_s_at) / Fold change /veh ISYNA1 (11749810_s_at) / RFU ACY1 (11761880_at) / Fold change /veh ACY1 (11761880_at) / RFU 11764098_at / Fold change /veh 11764098_at / RFU SAMD14 (11745864_x_at) / Fold change /veh SAMD14 (11745864_x_at) / RFU NPB (11741838_a_at) / Fold change /veh NPB (11741838_a_at) / RFU TMPRSS6 (11731388_a_at) / Fold change /veh TMPRSS6 (11731388_a_at) / RFU KRTAP10-2 (11738614_at) / Fold change /veh KRTAP10-2 (11738614_at) / RFU ARHGAP8 /// PRR5-ARHGAP8 (11727945_x_at) / Fold change /veh ARHGAP8 /// PRR5-ARHGAP8 (11727945_x_at) / RFU KRTAP5-7 /// NADSYN1 (11734609_at) / Fold change /veh KRTAP5-7 /// NADSYN1 (11734609_at) / RFU RASL12 (11751679_a_at) / Fold change /veh RASL12 (11751679_a_at) / RFU CDKN2B (11736163_a_at) / Fold change /veh CDKN2B (11736163_a_at) / RFU PRF1 (11729649_at) / Fold change /veh PRF1 (11729649_at) / RFU, ZNF638 /// ZNF638-IT1 / Fold change vs veh, ZNF638 /// ZNF638-IT1 / RFU, PANK3 / Fold change vs veh, PANK3 / RFU, SH3YL1 / Fold change vs veh, SH3YL1 / RFU, ZEB2 / Fold change vs veh, ZEB2 / RFU, NRIP1 / Fold change vs veh, NRIP1 / RFU, PTTG1IP / Fold change vs veh, PTTG1IP / RFU, CAPN2 / Fold change vs veh, CAPN2 / RFU, MED14 / Fold change vs veh, MED14 / RFU, SNORA58 / Fold change vs veh, SNORA58 / RFU, C1orf63 / Fold change vs veh, C1orf63 / RFU, LRRFIP1 / Fold change vs veh, LRRFIP1 / RFU, NDUFAF7 / Fold change vs veh, NDUFAF7 / RFU, SLC12A2 / Fold change vs veh, SLC12A2 / RFU, IBTK / Fold change vs veh, IBTK / RFU, ESF1 / Fold change vs veh, ESF1 / Fold change vs veh, TMEM50B / RFU, TAOK1 / Fold change vs veh, TAOK1 / RFU, ACBD3 / Fold change vs veh, ACBD3 / RFU, TMA16 / Fold change vs veh, TMA16 / RFU, RWDD3 / Fold change vs veh, RWDD3 / RFU, BCAT1 / Fold change vs veh, BCAT1 / RFU, EDEM3 / Fold change vs veh, EDEM3 / RFU, TMEM33 / Fold change vs veh, TMEM33 / RFU, WDR75 / Fold change vs veh, WDR75 / RFU, AHCTF1 / Fold change vs veh, AHCTF1 / RFU, TFRC / Fold change vs veh, TFRC / RFU, ZDHHC17 / Fold change vs veh, ZDHHC17 / RFU, NOM1 / Fold change vs veh, NOM1 / RFU, ARL8B / Fold change vs veh, ARL8B / RFU, ZBTB11 / Fold change vs veh, ZBTB11 / RFU, TAMM41 / Fold change vs veh, TAMM41 / RFU, KIAA1704 /// LOC100996395 / Fold change vs veh, KIAA1704 /// LOC100996395 / RFU, ING1 / Fold change vs veh, ING1 / RFU, TRMT61B / Fold change vs veh, TRMT61B / RFU, FUBP3 / Fold change vs veh, FUBP3 / RFU, TP53 / Fold change vs veh, TP53 / RFU, TNKS2 / Fold change vs veh, TNKS2 / RFU, ZFP14 / Fold change vs veh, ZFP14 / RFU, ACTR2 / Fold change vs veh, ACTR2 / RFU, PPP3R1 / Fold change vs veh, PPP3R1 / RFU, PIK3R1 / Fold change vs veh, PIK3R1 / RFU, HNRNPA1 / Fold change vs veh, HNRNPA1 / RFU, RNF170 / Fold change vs veh, RNF170 / RFU, ZNF28 / Fold change vs veh, ZNF28 / RFU, RNGTT / Fold change vs veh, RNGTT / RFU, OGT / Fold change vs veh, OGT / RFU, BRD1 / Fold change vs veh, BRD1 / RFU, MARS / Fold change vs veh, MARS / RFU, ZNF655 / Fold change vs veh, ZNF655 / RFU, FAHD1 / Fold change vs veh, FAHD1 / RFU, BDP1 / Fold change vs veh, BDP1 / RFU, LRRCC1 / Fold change vs veh, LRRCC1 / RFU, ARID1A / Fold change vs veh, ARID1A / RFU, ZNF146 / Fold change vs veh, ZNF146 / RFU, ZNF330 / Fold change vs veh, ZNF330 / RFU, GPN3 / Fold change vs veh, GPN3 / RFU, C9orf123 / Fold change vs veh, C9orf123 / RFU, N4BP2L2 / Fold change vs veh, N4BP2L2 / RFU, ARFIP1 / Fold change vs veh, ARFIP1 / RFU, FAM179B / Fold change vs veh, FAM179B / RFU, BCL10 / Fold change vs veh, BCL10 / RFU, UHRF1BP1L / Fold change vs veh, UHRF1BP1L / RFU, BET1 / Fold change vs veh, BET1 / RFU, CNOT2 / Fold change vs veh, CNOT2 / RFU, ZNF268 / Fold change vs veh, ZNF268 / Fold change vs veh, ZNF507 / RFU, DGCR2 / Fold change vs veh, DGCR2 / RFU, WDSUB1 / Fold change vs veh, WDSUB1 / Fold change vs veh, HSP90B1 /// MIR3652 / RFU, ADSS / Fold change vs veh, ADSS / RFU, GK / Fold change vs veh, GK / RFU, ZNF148 / Fold change vs veh, ZNF148 / RFU, TAF9 / Fold change vs veh, TAF9 / RFU, SLC1A5 / Fold change vs veh, SLC1A5 / RFU, SLMO2 / Fold change vs veh, SLMO2 / RFU, ABCC4 / Fold change vs veh, ABCC4 / RFU, LOC101060439 /// RAP1B / Fold change vs veh, LOC101060439 /// RAP1B / RFU, RFX7 / Fold change vs veh, RFX7 / RFU, GTPBP10 / Fold change vs veh, GTPBP10 / RFU, CNEP1R1 / Fold change vs veh, CNEP1R1 / RFU, BIVM-ERCC5 /// ERCC5 / Fold change vs veh, BIVM-ERCC5 /// ERCC5 / RFU, ILF3 / Fold change vs veh, ILF3 / RFU 11762660_at / Fold change /veh 11762660_at / RFU VCAN (11757783_s_at) / Fold change /veh VCAN (11757783_s_at) / RFU DDX43 (11728927_at) / Fold change /veh DDX43 (11728927_at) / RFU KRT8 (11758188_x_at) / Fold change /veh KRT8 (11758188_x_at) / RFU NKD1 (11759106_at) / Fold change /veh NKD1 (11759106_at) / RFU SRD5A1 (11742802_a_at) / Fold change /veh SRD5A1 (11742802_a_at) / RFU TPSAB1 /// TPSB2 (11721975_s_at) / Fold change /veh TPSAB1 /// TPSB2 (11721975_s_at) / RFU GSTM3 (11746129_a_at) / Fold change /veh GSTM3 (11746129_a_at) / RFU IL23R (11737362_x_at) / Fold change /veh IL23R (11737362_x_at) / RFU TMEM51 (11727254_a_at) / Fold change /veh TMEM51 (11727254_a_at) / RFU PIWIL2 (11732686_x_at) / Fold change /veh PIWIL2 (11732686_x_at) / RFU ORM1 (11744905_x_at) / Fold change /veh ORM1 (11744905_x_at) / RFU CCDC152 (11743942_at) / Fold change /veh CCDC152 (11743942_at) / RFU ECM1 (11717891_a_at) / Fold change /veh ECM1 (11717891_a_at) / RFU IL23R (11748794_a_at) / Fold change /veh IL23R (11748794_a_at) / RFU TNFAIP8L3 (11732012_x_at) / Fold change /veh TNFAIP8L3 (11732012_x_at) / RFU MBOAT4 (11741988_at) / Fold change /veh MBOAT4 (11741988_at) / RFU 11764193_at / Fold change /veh 11764193_at / RFU TMEM53 (11763286_at) / Fold change /veh TMEM53 (11763286_at) / RFU MAGEB2 (11727129_at) / Fold change /veh MAGEB2 (11727129_at) / RFU TMEM200A (11744735_a_at) / Fold change /veh TMEM200A (11744735_a_at) / RFU CCDC152 (11751479_a_at) / Fold change /veh CCDC152 (11751479_a_at) / RFU FAM211A (11726209_a_at) / Fold change /veh FAM211A (11726209_a_at) / RFU RGS16 (11746705_a_at) / Fold change /veh RGS16 (11746705_a_at) / RFU VCAN (11755009_s_at) / Fold change /veh VCAN (11755009_s_at) / RFU RHOB (11743442_s_at) / Fold change /veh RHOB (11743442_s_at) / RFU RGS16 (11720943_a_at) / Fold change /veh RGS16 (11720943_a_at) / RFU RGS16 (11720944_at) / Fold change /veh RGS16 (11720944_at) / RFU, VPS4B / Fold change vs veh, VPS4B / RFU, CREB1 / Fold change vs veh, CREB1 / RFU, DNAJC13 / Fold change vs veh, DNAJC13 / RFU, GNAQ / Fold change vs veh, GNAQ / RFU, CDK5R1 / Fold change vs veh, CDK5R1 / RFU, ZRANB3 / Fold change vs veh, ZRANB3 / RFU, CUL4A / Fold change vs veh, CUL4A / RFU, CCNY / Fold change vs veh, CCNY / RFU, UFL1 / Fold change vs veh, UFL1 / RFU, COG3 / Fold change vs veh, COG3 / RFU, DIAPH2 / Fold change vs veh, DIAPH2 / RFU, SKA2 / Fold change vs veh, SKA2 / RFU, AFF3 / Fold change vs veh, AFF3 / RFU, LMF1 / Fold change vs veh, LMF1 / RFU, IPO11 / Fold change vs veh, IPO11 / RFU, DFFB / Fold change vs veh, DFFB / RFU, FOXP1 / Fold change vs veh, FOXP1 / RFU, CARD8 / Fold change vs veh, CARD8 / RFU, STRN3 / Fold change vs veh, STRN3 / RFU, ADK / Fold change vs veh, ADK / RFU, RASSF2 / Fold change vs veh, RASSF2 / RFU, WIPF1 / Fold change vs veh, WIPF1 / RFU, LARP1B / Fold change vs veh, LARP1B / RFU, RASA1 / Fold change vs veh, RASA1 / RFU, RB1 / Fold change vs veh, RB1 / RFU, PPFIA1 / Fold change vs veh, PPFIA1 / RFU, MAT2A / Fold change vs veh, MAT2A / RFU, CCT5 / Fold change vs veh, CCT5 / RFU, WDR92 / Fold change vs veh, WDR92 / RFU, CUX1 / Fold change vs veh, CUX1 / RFU, TTC7A / Fold change vs veh, TTC7A / RFU, TMEM135 / Fold change vs veh, TMEM135 / RFU, DEPTOR / Fold change vs veh, DEPTOR / RFU, CPM / Fold change vs veh, CPM / RFU, DNAJB6 / Fold change vs veh, DNAJB6 / RFU, CACNA2D3 / Fold change vs veh, CACNA2D3 / RFU, DTX4 / Fold change vs veh, DTX4 / RFU, TFCP2 / Fold change vs veh, TFCP2 / RFU, GMCL1 /// GMCL1P1 / Fold change vs veh, GMCL1 /// GMCL1P1 / RFU, AEBP2 / Fold change vs veh, AEBP2 / RFU, SNHG1 /// SNORD22 /// SNORD25 /// SNORD26 /// SNORD27 /// SNORD28 /// SNORD29 /// SNORD31 / Fold change vs veh, SNHG1 /// SNORD22 /// SNORD25 /// SNORD26 /// SNORD27 /// SNORD28 /// SNORD29 /// SNORD31 / Fold change (Aza/veh), C12orf56 (ProbeSet 11735607_a_at) / Fold change (ACY-1035/veh), C12orf56 (ProbeSet 11735607_a_at) / Fold change (Aza/veh), FGFR1OP (ProbeSet 11751329_s_at) / Fold change (ACY-1035/veh), FGFR1OP (ProbeSet 11751329_s_at) / Fold change (Aza/veh), VPS36 (ProbeSet 11739960_a_at) / Fold change (ACY-1035/veh), VPS36 (ProbeSet 11739960_a_at) / RFU SYPL1 (11715823_x_at) / Fold change /veh SYPL1 (11715823_x_at) / RFU IGFBP7 (11715501_s_at) / Fold change /veh IGFBP7 (11715501_s_at) / RFU REEP3 (11722064_at) / Fold change /veh REEP3 (11722064_at) / RFU IGLL1 (11728026_x_at) / Fold change /veh IGLL1 (11728026_x_at): dose or concentration left out as unconfirmed
# Conditions: ProbeSet 11762504_a_at; LIST D
smiles,measurement,value
Nc1ncn([C@@H]2O[C@H](CO)[C@@H](O)[C@H]2O)c(=O)n1 [azacitidine],"RFU, ZRANB3",79.10 RFU
